How the values were obtained:
[1] = tested on: T1, MIP (manganese-independent peroxidase); assay: initial rates, oxidation of DMP at […] nm; format: biochemical, Cladosporium cladosporioides; conditions: without H2O2 and Mn2+; optimal conditions (20°C, pH 2.5), but b56 states 28°C and 10 to 40 mmol/L substrate; malonate buffer; compound identity doubtful: DMP is spelt out as dimethyl phthalate
T1 construct: native enzyme purified from culture supernatant (ammonium sulfate, DEAE-Sephadex A 50, CM-Sephadex C 50, Sephadex G-75); about 47 kDa by SDS-PAGE

laccase = conditions: optimal conditions (15°C, pH 3.5), but b56 states 28°C and 10 to 40 mmol/L substrate; sodium acetate buffer

| Km (laccase) | Structure (SMILES) | Km [1] |
| --- | --- | --- |
|  | COc1cccc(OC)c1O [DMP] | 6.9 µM |
| 2.8 µM | CCn1c(=NN=c2sc3cc(S(=O)(=O)O)ccc3n2CC)sc2cc(S(=O)(=O)O)ccc21 [ABTS] |  |
